Reference: patent publication US12180187B2, “1-phenyl-5-azinylpyrazolyl-3-oxyalkyl acids and their use for controlling unwanted plant growth” (BAYER AKTIENGESELLSCHAFT, priority 2019, dated 2024)
“And” between values parts separate entries of the source, which are not always exact repeats. Equal values may be shown once.

How the values were obtained:
ALOMY [1] = experiment: Pre-emergence action against ALOMY, 1280 g/ha; format: in vivo, Alopecurus myosuroides; details: visual scoring after about 3 weeks vs untreated controls, 100% = plants have died, 0% = like control plants
In short: (§1)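 Mono- and dicot weed seeds sown in sandy loam were treated on the covering soil surface with WP or EC formulations plus 0.5% additive at 600 L water/ha. Pots stayed in a greenhouse; damage was scored visually after ~3 weeks as percent versus untreated controls (100% = dead).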

DIGSA = experiment: Pre-emergence action against DIGSA, 1280 g/ha; format: in vivo, Digitaria sanguinalis; details: visual scoring after about 3 weeks vs untreated controls, 100% = plants have died, 0% = like control plants
In short: as §1

VERPE = experiment: Pre-emergence action against VERPE, 1280 g/ha; format: in vivo, Veronica persica; details: scored visually after about 3 weeks vs untreated controls (100% = plants have died); for pest or weed control at 1280 g/ha: Veronica persica, 504 h
In short: as §1

MATIN [2] = experiment: Pre-emergence action at 320 g/ha against MATIN; format: in vivo, Tripleurospermum inodorum (Matricaria inodora); details: visual scoring after about 3 weeks vs untreated controls; for pest or weed control at 320 g/ha: Tripleurospermum inodorum, 504 h
In short: (§2)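 WP/EC formulations applied pre-emergence to covering soil, water rate 600 l/ha, 0.5% additive. Greenhouse, ~3 weeks. Visual % damage vs untreated (0–100%).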

PHBPU [3] = experiment: Pre-emergence action at 320 g/ha against PHBPU; format: in vivo; details: visual scoring after about 3 weeks vs untreated controls
In short: as §2

STEME = experiment: Pre-emergence action at 320 g/ha against STEME; format: in vivo, Stellaria media; details: greenhouse, scored visually after about 3 weeks vs untreated controls, 100% = plants have died, 0% = like control plants
In short: as §2

ECHCG = experiment: Post-emergence action against ECHCG, 1.28 kg/ha; format: in vivo, Echinochloa crus-galli; details: dosage 1280 g/ha, visual rating about 3 weeks after treatment vs untreated controls; for pest or weed control at 1280 g/ha: Echinochloa crus-galli, 504 h
In short: (§3)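 Herbicidal action is estimated by eye after about three weeks under optimum greenhouse conditions, on a 0–100% scale against untreated plants. Compounds are applied post-emergence to one-leaf-stage weeds as aqueous WP or EC preparations containing 0.5% additive, sprayed at 600 L/ha.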

MATIN [4] = experiment: Post-emergence action against MATIN, 1.28 kg/ha; format: in vivo, Tripleurospermum inodorum (Matricaria inodora); details: dosage 1280 g/ha, visual rating about 3 weeks after treatment vs untreated controls (100% = plants died)
In short: as §3

ABUTH = experiment: Post-emergence action at 320 g/ha against ABUTH; format: in vivo, Abutilon theophrasti; details: visual rating about 3 weeks after treatment vs untreated controls
In short: (§4)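 Weeds were sown in sandy loam, grown in a greenhouse and sprayed at the one-leaf stage, 2 to 3 weeks after sowing, with WP or EC formulations as aqueous suspension or emulsion plus 0.5% additive at 600 l/ha water. Activity was rated visually after about 3 weeks against untreated controls (100% = plants dead, 0% = like control).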

AMARE = experiment: Post-emergence action at 320 g/ha against AMARE; format: in vivo, Amaranthus retroflexus; details: visual rating about 3 weeks after treatment vs untreated controls; for pest or weed control at 320 g/ha: Amaranthus retroflexus, 504 h
In short: as §4

PHBPU [5] = experiment: Post-emergence action at 320 g/ha against PHBPU; format: in vivo; details: visual rating about 3 weeks after treatment vs untreated controls
In short: as §4

POLCO = experiment: Post-emergence action at 320 g/ha against POLCO; format: in vivo, Fallopia convolvulus (Polygonum convolvulus); details: visual rating about 3 weeks after treatment vs untreated controls; for pest or weed control at 320 g/ha: Fallopia convolvulus, 504 h
In short: as §4

HORMU = experiment: Post-emergence action at 320 g/ha against HORMU; format: in vivo, Hordeum murinum; details: visual rating about 3 weeks after treatment vs untreated controls
In short: as §4

ALOMY [6] = experiment: Post-emergence action against ALOMY, 320 g/ha; format: in vivo, Alopecurus myosuroides; details: dosage 320 g/ha, visual rating about 3 weeks after treatment vs untreated controls (100% = plants died)
In short: as §4

KCHSC [7] = experiment: Post-emergence action against KCHSC, 1.28 kg/ha; format: in vivo, Bassia scoparia; details: dosage 1280 g/ha, visual rating about 3 weeks after treatment vs untreated controls (100% = plants died)
In short: as §3

SETVI = experiment: Post-emergence action at 320 g/ha against SETVI; format: in vivo, Setaria viridis; details: visual rating about 3 weeks after treatment vs untreated controls
In short: as §4

KCHSC [8] = experiment: Pre-emergence action against KCHSC, 1280 g/ha; format: in vivo, Bassia scoparia; details: scored visually after about 3 weeks vs untreated controls (100% = plants have died)
In short: as §1

O=C(O)COc1nn(-c2ccccc2F)c(-c2cncnc2)c1Br [VI-007, {[4-Bromo-1-(2-fluorophenyl)-5-(pyrimidin-5-yl)-1H-pyrazol-3-yl]oxy}acetic Acid]
90%: Pre-emergence action against ALOMY (ALOMY [1]) | pest or weed control at 1280 g/ha (VERPE) | Pre-emergence action against PHBPU in % (PHBPU [3]) | Post-emergence action against MATIN (MATIN [4]) | Post-emergence action against ABUTH in % (ABUTH) | Post-emergence action against PHBPU in % (PHBPU [5]) | Post-emergence action against HORMU in % (HORMU)
100%: Pre-emergence action against DIGSA (DIGSA) | pest or weed control at 320 g/ha (MATIN [2]) | Pre-emergence action at 320 g/ha against STEME in % (STEME) | pest or weed control at 1280 g/ha (ECHCG)
80%: pest or weed control at 320 g/ha (AMARE) | pest or weed control at 320 g/ha (POLCO)

O=C(O)COc1nn(-c2ccccc2F)c(-c2ccc(F)nc2)c1Br [VII-003, {[4-Bromo-1-(2-fluorophenyl)-5-(6-fluoropyridin-3-yl)-1H-pyrazol-3-yl]oxy}acetic acid]
90%: Pre-emergence action against ALOMY (ALOMY [1]) | pest or weed control at 1280 g/ha (VERPE) | pest or weed control at 320 g/ha (MATIN [2]) | Pre-emergence action against PHBPU in % (PHBPU [3]) | Pre-emergence action at 320 g/ha against STEME in % (STEME) | pest or weed control at 1280 g/ha (ECHCG) | pest or weed control at 320 g/ha (AMARE) | Post-emergence action against PHBPU in % (PHBPU [5]) | pest or weed control at 320 g/ha (POLCO) | Post-emergence action against HORMU in % (HORMU)
80%: Post-emergence action against ALOMY (ALOMY [6]) | Post-emergence action against ABUTH in % (ABUTH)
100%: Pre-emergence action against DIGSA (DIGSA) | Post-emergence action against MATIN (MATIN [4])

CCOC(=O)COc1nn(-c2ccccc2F)c(-c2ccc(F)nc2)c1Br [VII-012, Ethyl {[4-bromo-1-(2-fluorophenyl)-5-(6-fluoropyridin-3-yl)-1H-pyrazol-3-yl]oxy}acetate]
100%: Pre-emergence action against DIGSA (DIGSA) | pest or weed control at 1280 g/ha (VERPE) | Pre-emergence action at 320 g/ha against STEME in % (STEME) | pest or weed control at 1280 g/ha (ECHCG)
90% and 80%: Pre-emergence action against PHBPU in % (PHBPU [3]) | Post-emergence action against PHBPU in % (PHBPU [5])
100% and 90%: Pre-emergence action against ALOMY (ALOMY [1]) | Post-emergence action against MATIN (MATIN [4])
100% and 80%: Post-emergence action against SETVI in % (SETVI)
80%: Post-emergence action against ABUTH in % (ABUTH)
90%: pest or weed control at 320 g/ha (MATIN [2]) | Post-emergence action against KCHSC (KCHSC [7]) | Post-emergence action against ALOMY (ALOMY [6]) | pest or weed control at 320 g/ha (AMARE) | pest or weed control at 320 g/ha (POLCO) | Post-emergence action against HORMU in % (HORMU)

CCOC(=O)COc1nn(-c2ccc(F)cc2F)c(-c2ccc(F)nc2)c1Cl [VII-016]
80%: Pre-emergence action against MATIN in % (MATIN [2]) | Post-emergence action against SETVI in % (SETVI) | Post-emergence action against HORMU in % (HORMU)
100%: Post-emergence action against MATIN (MATIN [4])
90%: Pre-emergence action against VERPE (VERPE) | Pre-emergence action against PHBPU in % (PHBPU [3]) | Pre-emergence action at 320 g/ha against STEME in % (STEME) | Post-emergence action against ECHCG (ECHCG) | Post-emergence action against ALOMY (ALOMY [6]) | Post-emergence action against ABUTH in % (ABUTH) | Post-emergence action against AMARE in % (AMARE) | Post-emergence action against PHBPU in % (PHBPU [5]) | Post-emergence action against POLCO in % (POLCO)

CCOC(=O)C(C)Oc1nn(-c2ccccc2F)c(-c2ccc(F)nc2)c1Br (centres unmarked) [VII-019]
90%: Pre-emergence action against ALOMY (ALOMY [1]) | Pre-emergence action against PHBPU in % (PHBPU [3]) | Pre-emergence action at 320 g/ha against STEME in % (STEME) | Post-emergence action against KCHSC (KCHSC [7]) | Post-emergence action against PHBPU in % (PHBPU [5]) | Post-emergence action against POLCO in % (POLCO)
80%: Post-emergence action against ABUTH in % (ABUTH) | Post-emergence action against AMARE in % (AMARE) | Post-emergence action against SETVI in % (SETVI)
100%: Pre-emergence action against DIGSA (DIGSA) | Pre-emergence action against KCHSC (KCHSC [8]) | Pre-emergence action against VERPE (VERPE) | Pre-emergence action against MATIN in % (MATIN [2]) | Post-emergence action against ECHCG (ECHCG) | Post-emergence action against ALOMY (ALOMY [6]) | Post-emergence action against HORMU in % (HORMU)

COC(=O)COc1nn(-c2ccc(F)cc2)c(-c2cccnc2)c1Br [VII-028]
80%: Pre-emergence action against MATIN in % (MATIN [2]) | Post-emergence action against ALOMY (ALOMY [6]) | Post-emergence action against ABUTH in % (ABUTH) | Post-emergence action against AMARE in % (AMARE) | Post-emergence action against SETVI in % (SETVI) | Post-emergence action against HORMU in % (HORMU)
90%: Pre-emergence action against VERPE (VERPE) | Pre-emergence action at 320 g/ha against STEME in % (STEME) | Post-emergence action against ECHCG (ECHCG) | Post-emergence action against MATIN (MATIN [4]) | Post-emergence action against PHBPU in % (PHBPU [5])
100%: Pre-emergence action against PHBPU in % (PHBPU [3])

COC(=O)C(C)Oc1nn(-c2ccccc2)c(-c2cccnc2)c1Cl (centres unmarked) [VII-032]
90%: Pre-emergence action against DIGSA (DIGSA) | Pre-emergence action against MATIN in % (MATIN [2]) | Pre-emergence action at 320 g/ha against STEME in % (STEME) | Post-emergence action against MATIN (MATIN [4]) | Post-emergence action against ALOMY (ALOMY [6]) | Post-emergence action against AMARE in % (AMARE) | Post-emergence action against PHBPU in % (PHBPU [5]) | Post-emergence action against HORMU in % (HORMU)
80%: Post-emergence action against ABUTH in % (ABUTH) | Post-emergence action against SETVI in % (SETVI) | Post-emergence action against POLCO in % (POLCO)
100%: Pre-emergence action against VERPE (VERPE) | Pre-emergence action against PHBPU in % (PHBPU [3]) | Post-emergence action against ECHCG (ECHCG)
